In experiment [1] the test system is MEF A1-2A-tBid cells, caspase 3/7 luminescence, 3 h. In words: apoptosis induction in tBid-primed mouse fibroblasts – cell-based, MEF A1-2A-tBid, luminescence, dry powder, set 2, orthogonal assay for A1 inhibitor project, dose response (AID 504359).
Experiment in experiment [2]: as above
As to conditions: MEF A1-2A-tBid cells, caspase 3/7 luminescence, 3 h; at 35 µM (top of the series).

Active and inactive are the calls of the source.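 How the source made its calls: active means fitted curve climbs past 10% caspase activation, relative to the positive control, at or below the top valid tested dose; inactive means the rest, including activity in the opposite direction.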

This passage reports AC10 and caspase activation results from PubChem BioAssay AID504359 (Broad Institute, 2011).

Turning to `O=[N+]([O-])c1cnc2ccccc2c1Sc1ccccc1`, the AC10 in experiment [1] is 7.93 µM. For the compound `CCSc1c([N+](=O)[O-])c(=O)oc2ccccc12`, in experiment [2], the caspase activation is -3.21% (inactive). The same measure, in the same setting: in the case of `Cn1c(=O)c([N+](=O)[O-])c(Nc2ccc(Cl)cc2)c2ccccc21` it was -0.562% (inactive). Take `Cn1c(=O)c([N+](=O)[O-])c(Cl)c2ccccc21`: in experiment [1], the AC10 was 0.716 µM. Turning to `O=c1oc2ccccc2c(N2CCCCC2)c1[N+](=O)[O-]`, the caspase activation in experiment [2] was -2.24% (inactive). On the same count and under the same terms, in the case of `O=c1oc2ccccc2c(Cl)c1[N+](=O)[O-]` it was -6.09% (inactive); in that of `Cc1ccc(Nc2c([N+](=O)[O-])c(=O)n(C)c3ccccc23)cc1`, -0.806% (inactive). The same measure, in the same setting: next, `Cc1ccc(Sc2cc(=O)n(C)c3ccccc23)cc1`: -7.35% (inactive). Turning to `Cc1ccc(Sc2c([N+](=O)[O-])c(=O)n(C)c3ccccc23)cc1`, the AC10 in experiment [1] is 7.45 µM. Still for that read-out and setting: next, `Cc1ccc(Sc2c([N+](=O)[O-])cnc3ccccc23)cc1`: 5.49 µM. As for `O=c1oc2ccccc2c(Nc2cc(Cl)cc(Cl)c2)c1[N+](=O)[O-]`, the caspase activation in experiment [2] was -1.39% (inactive).

In the case of `CCOCCCNc1c([N+](=O)[O-])c(=O)n(C)c2ccccc12`, the caspase activation in experiment [2] is 0.513% (inactive).

Regarding `CN1C(=O)C(C)(C)N(Cc2ccccc2)c2ccccc21`, the caspase activation in experiment [2] is 0.072% (inactive). On the same count and under the same terms, next, `CCOC(=O)N1CCN(c2c([N+](=O)[O-])c(=O)n(C)c3ccccc23)CC1`: -0.293% (inactive); `C/C1=C/C(=O)O[C@@H]2C[C@@H](CC[C@H](C)/C=C\CC1)O[C@@](O)(C1CSC(=O)N1)C2` (stereo partly specified): 3.32% (inactive). Same read-out and setting: next, `O=C(Oc1cccc(/C=N/Nc2nc(Nc3ccccc3)nc(N3CCOCC3)n2)c1)c1ccco1`: 3.43% (inactive). Still for that read-out and setting: next, `Cc1ccc(Nc2c([N+](=O)[O-])c(=O)oc3ccccc23)cc1`: 1.44% (inactive). On to `Cn1c(=O)c([N+](=O)[O-])c(-n2cnc3ccccc32)c2ccccc21`, for which, in experiment [1], the AC10 is 24.8 µM. `Cn1c(=O)c([N+](=O)[O-])c(Oc2ccccc2)c2ccccc21`: the caspase activation in experiment [2] is 0.967% (inactive). The same measure, in the same setting: in the case of `O=c1oc2ccccc2c(Sc2ccccc2)c1[N+](=O)[O-]` it was -5.14% (inactive); in that of `Cc1ccc(Sc2c([N+](=O)[O-])c(=O)oc3ccccc23)cc1`, -3.75% (inactive).
